The results in this text go back to ChEMBL document CHEMBL1201862, “PubChem BioAssay data set” (2004).

Some test systems named below: SNB-75; HCT-116; HOP-62; Malme-3M; SK-MEL-2; MOLT-4; SK-MEL-28; SF-268; TK-10; MDA-MB-435; NCI/ADR-RES; SK-OV-3; RPMI-8226; NCI-H23; U-251; HL-60; CAKI-1; HCC 2998; DU-145; SF-539.
Common to all, as to experiment: NCI anticancer screen, dose series, 48 h

The structures appear in SMILES notation.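 96-well plates; 48 h exposure; 5 concentrations. Endpoints by linear interpolation between flanking doses. Not reached: highest tested concentration assigned. GI50 = concentration required for 50% inhibition of growth.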 Active and inactive are the calls of the source. Rule as the data show it: active = GI50 up to about 1.1 µM and inactive = higher.

Take `CCOC(=O)CCC(NC(=O)c1ccc(Nc2nc3ccccc3n3cccc23)cc1)C(=O)OCC` (configuration not stated): the GI50 in the assay with SNB-75 was 26.7 µM (inactive); in the assay on HCT-116, 31.2 µM (inactive); in the assay with HOP-62, 23.7 µM (inactive); in the assay on Malme-3M, 37.2 µM (inactive); in the assay with SK-MEL-2, 20 µM (inactive); with MOLT-4, 18.3 µM (inactive). Besides, the GI50 in the assay on SK-MEL-28 is 47.6 µM (inactive); in the assay on SF-268, 37.8 µM (inactive); in the assay on TK-10, 22.5 µM (inactive); with MDA-MB-435, 30.2 µM (inactive); in the assay with NCI/ADR-RES, 19.5 µM (inactive); in the assay with SK-OV-3, 24.1 µM (inactive). In addition, the GI50 with RPMI-8226 is 23.1 µM (inactive); in the assay on NCI-H23, 35.9 µM (inactive); with U-251 it was 23 µM (inactive); with HL-60 it was > 100 µM (inactive); with CAKI-1, 33.6 µM (inactive); in the assay with HCC 2998, 29.8 µM (inactive). Besides, the GI50 with DU-145 is 28.9 µM (inactive); in the assay on SF-539, 18.8 µM (inactive).

Consider `C/C(=N\O)c1cccc[n+]1Cc1ccccc1`, for which the GI50 in the assay on SNB-75, with HCT-116, in the assay with HOP-62, in the assay on Malme-3M, with SK-MEL-2 and in the assay on MOLT-4 was > 100 µM (inactive) each time. Also, the GI50 in the assay on SK-MEL-28, with SF-268, with TK-10, in the assay with MDA-MB-435, in the assay on NCI/ADR-RES and in the assay with SK-OV-3 was > 100 µM (inactive) in each case. The GI50 with RPMI-8226, with NCI-H23, with U-251, in the assay with HL-60, in the assay on CAKI-1 and in the assay on HCC 2998 was > 100 µM (inactive) in each case. Also, the GI50 with DU-145 and in the assay on SF-539 was > 100 µM (inactive) each time.

As to `CCSc1nc(N2CCCC2)s[s+]1.[O-][Cl+3]([O-])([O-])[O-]`, the GI50 with SNB-75 was 24.3 µM (inactive); in the assay on HCT-116 it was 28.4 µM (inactive); with HOP-62, 56.5 µM (inactive); in the assay on Malme-3M, 53.3 µM (inactive); with SK-MEL-2, 60.7 µM (inactive); in the assay on MOLT-4, 3.29 µM (inactive). Besides, the GI50 is 36.5 µM (inactive) with SK-MEL-28; 40.2 µM (inactive) with SF-268; 90.8 µM (inactive) in the assay with TK-10; 13.6 µM (inactive) with MDA-MB-435; > 100 µM (inactive) in the assay on NCI/ADR-RES; 84.1 µM (inactive) in the assay on SK-OV-3. The GI50 in the assay with RPMI-8226 was 0.318 µM (active); with NCI-H23 it was 46.8 µM (inactive); in the assay with U-251 it was 56.4 µM (inactive); in the assay with HL-60 it was 2.92 µM (inactive); with CAKI-1 it was 43 µM (inactive); in the assay with HCC 2998, 73.6 µM (inactive). The GI50 with DU-145 is > 100 µM (inactive); with SF-539, 43 µM (inactive).

`COc1ccc(/C=C/c2sc3ccccc3[n+]2CCCCI)cc1OC`: the GI50 in the assay on SNB-75 is 5.64 µM (inactive); in the assay with HCT-116, 4.36 µM (inactive); in the assay on HOP-62, > 10 µM (inactive); in the assay on Malme-3M, 3.01 µM (inactive); in the assay with SK-MEL-2, 3.61 µM (inactive); with MOLT-4 it was 5.87 µM (inactive). Moreover, the GI50 with SK-MEL-28 is > 10 µM (inactive); in the assay with SF-268 it was > 10 µM (inactive); with TK-10, > 10 µM (inactive); in the assay with MDA-MB-435, 4.57 µM (inactive); in the assay with NCI/ADR-RES, > 10 µM (inactive); with SK-OV-3, > 10 µM (inactive). The GI50 is 7.33 µM (inactive) in the assay on RPMI-8226; > 10 µM (inactive) in the assay with NCI-H23; 6.67 µM (inactive) in the assay on U-251; 4.46 µM (inactive) in the assay on HL-60; > 10 µM (inactive) in the assay on CAKI-1; > 10 µM (inactive) in the assay on HCC 2998. Besides, the GI50 in the assay with DU-145 and in the assay on SF-539 was > 10 µM (inactive) each time.

With `CC(C)(C)OC(=O)N/N=C(/N)c1ccccc1`, the GI50 in the assay with SNB-75, with HCT-116, in the assay on HOP-62, with Malme-3M, with SK-MEL-2 and in the assay with MOLT-4 was > 100 µM (inactive) throughout. Besides, the GI50 with SK-MEL-28, with SF-268, in the assay with TK-10, in the assay with MDA-MB-435, in the assay on NCI/ADR-RES and in the assay with SK-OV-3 was > 100 µM (inactive) throughout. Besides, the GI50 is > 100 µM (inactive) with RPMI-8226; > 100 µM (inactive) with NCI-H23; > 100 µM (inactive) in the assay with U-251; 6.55 µM (inactive) in the assay with HL-60; > 100 µM (inactive) in the assay with CAKI-1; > 100 µM (inactive) in the assay with HCC 2998. Moreover, the GI50 with DU-145 and with SF-539 was > 100 µM (inactive) each time.

In the case of `Cc1ccc(S(=O)(=O)ON2C(=O)c3c(N)c(C#N)c(-c4ccccc4)c(-c4ccccc4)c3C2=O)cc1`, the GI50 with SNB-75 was 36.4 µM (inactive); in the assay on HCT-116, 14.6 µM (inactive); in the assay with Malme-3M, 21.5 µM (inactive); in the assay with SK-MEL-2 it was 17.1 µM (inactive); with MOLT-4, 10.2 µM (inactive); in the assay on SK-MEL-28 it was 15.2 µM (inactive). For the same compound, the GI50 in the assay with SF-268 is 34.3 µM (inactive); with TK-10, 17.3 µM (inactive); in the assay with MDA-MB-435 it was 9.77 µM (inactive); in the assay with NCI/ADR-RES, 23.4 µM (inactive); in the assay on SK-OV-3, 16.2 µM (inactive); with RPMI-8226, 11.1 µM (inactive). Further, the GI50 is 16.2 µM (inactive) with U-251; 2.7 µM (inactive) with HL-60; 16 µM (inactive) with CAKI-1; 31.2 µM (inactive) with HCC 2998; 25.9 µM (inactive) in the assay on DU-145; 21.6 µM (inactive) in the assay on SF-539.

For `N#Cc1nc(/C=C/c2cccnc2)oc1N`, the GI50 in the assay with SNB-75, in the assay with HCT-116, with HOP-62, in the assay on Malme-3M, with SK-MEL-2 and in the assay with MOLT-4 was > 100 µM (inactive) each time. The GI50 in the assay with SK-MEL-28, in the assay with SF-268, in the assay with TK-10, with MDA-MB-435, in the assay on NCI/ADR-RES and with SK-OV-3 was > 100 µM (inactive) throughout. In addition, the GI50 in the assay with RPMI-8226, with NCI-H23, in the assay on U-251, in the assay on HL-60, in the assay with CAKI-1 and in the assay with HCC 2998 was > 100 µM (inactive) each time. For the same compound, the GI50 in the assay with DU-145 and with SF-539 was > 100 µM (inactive) in each case.

For the compound `Cc1ccc(-c2cn3c(nc4ccccc43)c(C)n2)cc1`, the GI50 was > 47 µM (inactive) in the assay on SNB-75; 32 µM (inactive) with HCT-116; 30.8 µM (inactive) with HOP-62; 37.6 µM (inactive) in the assay with Malme-3M; > 43.4 µM (inactive) with SK-MEL-2; 43.7 µM (inactive) in the assay with MOLT-4. The GI50 was 58.2 µM (inactive) with SK-MEL-28; > 46.6 µM (inactive) in the assay on SF-268; 43.9 µM (inactive) in the assay with TK-10; 16 µM (inactive) in the assay on MDA-MB-435; 40.1 µM (inactive) in the assay with NCI/ADR-RES; 7.66 µM (inactive) in the assay on SK-OV-3. The GI50 in the assay with RPMI-8226 was 30.7 µM (inactive); in the assay with NCI-H23, 22.6 µM (inactive); with U-251, 32.4 µM (inactive); with HL-60, 26.5 µM (inactive); with CAKI-1 it was > 100 µM (inactive); with HCC 2998 it was > 100 µM (inactive). In addition, the values for the GI50 in the assay on DU-145 and with SF-539 were 46.5 µM (inactive) and > 54.3 µM (inactive), respectively.

Regarding `COc1ccccc1/C=N/Nc1nnc2c3ccccc3c3ncccc3c2n1`, the GI50 in the assay with SNB-75 was 19.3 µM (inactive); in the assay with HCT-116, 72.4 µM (inactive); in the assay with HOP-62 it was 17.1 µM (inactive); in the assay on Malme-3M, 49.1 µM (inactive); in the assay on SK-MEL-2, 24.2 µM (inactive); in the assay on MOLT-4, 60.3 µM (inactive). In addition, the GI50 in the assay with SK-MEL-28 is > 100 µM (inactive); in the assay with SF-268 it was 29.9 µM (inactive); with TK-10, 28.6 µM (inactive); with MDA-MB-435, > 100 µM (inactive); with NCI/ADR-RES it was 38.1 µM (inactive); in the assay on SK-OV-3, 32.8 µM (inactive). Besides, the GI50 with RPMI-8226 is 69.2 µM (inactive); in the assay on NCI-H23, > 100 µM (inactive); in the assay on U-251, 37.3 µM (inactive); in the assay with HL-60, > 100 µM (inactive); in the assay with CAKI-1, > 100 µM (inactive); in the assay on HCC 2998, 71.9 µM (inactive). The GI50 in the assay with DU-145 is > 100 µM (inactive); in the assay with SF-539 it was 19 µM (inactive).

`CCOc1cc(NC(C)=O)ccc1C(=O)NN1C(=O)C(Oc2ccccc2)C1c1ccccc1` (configuration not stated): the GI50 with SNB-75 was 92.3 µM (inactive); with HCT-116, 94.4 µM (inactive); in the assay on HOP-62 it was > 100 µM (inactive); in the assay with Malme-3M, 52.5 µM (inactive); with SK-MEL-2 it was > 100 µM (inactive); in the assay with MOLT-4, 1.77 µM (inactive). Moreover, the GI50 in the assay with SK-MEL-28, in the assay on SF-268, in the assay with TK-10, with MDA-MB-435, in the assay with NCI/ADR-RES and in the assay with SK-OV-3 was > 100 µM (inactive) each time. In addition, the GI50 in the assay on RPMI-8226 is 35.9 µM (inactive); with NCI-H23, > 100 µM (inactive); in the assay with HL-60, 25.9 µM (inactive); in the assay with CAKI-1, 52.4 µM (inactive); in the assay with HCC 2998, > 100 µM (inactive); with DU-145, > 100 µM (inactive). In addition, the GI50 in the assay on SF-539 was 78 µM (inactive).
